Biological target: T1, full-length human Mineralocorticoid Receptor (MR) (Homo sapiens, UniProt P08235)
T1 construct: host or cells: PathHunter CHO-K1 cells
T1 sequence (P08235 1-984): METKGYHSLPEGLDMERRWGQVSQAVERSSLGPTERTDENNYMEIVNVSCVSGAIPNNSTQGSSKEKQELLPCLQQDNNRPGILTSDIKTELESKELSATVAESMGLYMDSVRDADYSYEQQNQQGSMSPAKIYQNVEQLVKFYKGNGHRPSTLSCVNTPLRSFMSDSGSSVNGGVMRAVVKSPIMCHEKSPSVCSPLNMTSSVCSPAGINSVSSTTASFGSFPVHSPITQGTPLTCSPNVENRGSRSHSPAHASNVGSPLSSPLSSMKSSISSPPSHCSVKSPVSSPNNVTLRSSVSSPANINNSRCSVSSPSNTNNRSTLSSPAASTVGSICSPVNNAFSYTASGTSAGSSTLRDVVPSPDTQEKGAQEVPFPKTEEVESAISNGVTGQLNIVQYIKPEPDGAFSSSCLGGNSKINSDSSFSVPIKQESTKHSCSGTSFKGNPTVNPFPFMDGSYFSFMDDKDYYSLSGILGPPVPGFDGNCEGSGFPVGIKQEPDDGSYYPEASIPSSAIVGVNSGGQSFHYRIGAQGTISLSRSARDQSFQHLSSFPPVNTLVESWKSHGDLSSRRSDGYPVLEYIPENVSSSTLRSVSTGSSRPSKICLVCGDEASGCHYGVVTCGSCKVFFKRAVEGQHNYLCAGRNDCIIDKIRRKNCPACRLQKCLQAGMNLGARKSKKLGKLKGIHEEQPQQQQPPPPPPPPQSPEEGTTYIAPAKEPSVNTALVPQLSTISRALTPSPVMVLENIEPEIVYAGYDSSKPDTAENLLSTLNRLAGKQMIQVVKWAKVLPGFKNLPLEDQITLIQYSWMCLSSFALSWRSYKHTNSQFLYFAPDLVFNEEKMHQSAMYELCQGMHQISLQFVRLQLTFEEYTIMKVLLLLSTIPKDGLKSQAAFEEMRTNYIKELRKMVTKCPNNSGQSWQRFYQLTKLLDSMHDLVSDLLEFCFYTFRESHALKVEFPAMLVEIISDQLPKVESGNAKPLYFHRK
Test: human MR NH Pro assay (PathHunter Protein:Protein interaction assay), MR antagonist activity
Type: cell-based
Details: PathHunter CHO-K1 cells overexpressing human MR; aldosterone about 0.3 nM; 6 hours at 37° C.; luminescence; read-out: Primary Assay IP rating (IP = inflection point for a given dose-response titration curve)
How it was run: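 PathHunter enzyme-complementation assay in cells of full-length human MR recruitment of a coactivator peptide, run in antagonist mode against aldosterone at about 0.3 to 1.0 nM final. Compounds are in a 10-point, 1:3 series from a 4.4 mM top. Incubation is 6 h at 37° C, then detection reagent for 1 h at RT, with a luminescence read-out.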

Compound | IC50 [nM]
CCC(C#N)(c1ccc(Cl)cc1)n1ccc2c(NS(=O)(=O)CC)cccc21 (centres unmarked) [Compound 178, N-(1-(1-(4-chlorophenyl)-1-cyanopropyl)-1H-indol-4-yl)ethanesulfonamide] | 100 to 500
N-(6-fluoro-1-(2-hydroxy-3-(4-(trfluoromethyl)phenyl)pentan-3-yl)-1H-indazol-4-yl)methanesulfonamide [Compound 112] | < 100

Next, values leading:

IC50 [nM] | Compound
100 to 500 | CCC(CC)(c1ccc(Cl)cc1)n1ccc2c(NS(C)(=O)=O)cccc21 [Compound 174, N-(1-(3-(4-chlorophenyl)pentan-3-yl)-1H-indol-4-yl)methanesulfonamide]
100 to 500 | C=CC(CC)(c1ccc(Cl)cc1)n1ccc2c(NS(C)(=O)=O)cccc21 (centres unmarked) [Compound 175, N-(1-(3-(4-chlorophenyl)pent-1-en-3-yl)-1H-indol-4-yl)methanesulfonamide]
100 to 500 | CCC(CN)(c1ccc(Cl)cc1)n1ccc2c(NS(C)(=O)=O)cccc21 (centres unmarked) [Compound 177, N-(1-(1-amino-2-(4-chlorophenyl)butan-2-yl)-1H-indol-4-yl)methanesulfonamide]

Reference: patent US8933113B2 (Merck Sharp & Dohme Corp., priority 2011, dated 2015)
